{"source": "patent US12527760B2", "about": "“Synthesis of pro-resolving analogs and compositions therefor” (Nocendra Inc., priority 2019, dated 2026)", "key": {"subjects with gingivitis": {"system": "subjects with gingivitis", "experiment": "randomized, placebo-controlled, double-blind clinical study of Compound (Vb) oral rinse in gingivitis", "format": "in vivo, humans", "protocol": "A clinical study comprised of 3 groups in a randomized, placebo-controlled, double-blind design with an additional group that received no treatment was performed to evaluate the use of Compound (Vb) on the treatment of gingivitis. Subjects were healthy adults, aged 18 through 65 years, with gingivitis as defined by […] (MGI)≥2.0. The treatment group (Compound (Vb) oral rinse) and the placebo rinse group consisted of 50 subjects each. The no-rinse control group consisted of 27 subjects. These group sizes were planned to allow for a 20% dropout rate.\n(§1) The pH of this solution was 7 or less.\nThe Compound (Vb) oral rinse group received the active agent at a concentration of 1.0 μM in the oral rinse applied once daily (after morning teeth brushing) for 28 days. Thirty-two subjects reported a total of 56 treatment emergent adverse effects (TEAEs), with the greatest percentage of subjects reporting at least 1 TEAE in the Compound (Vb) group (38.0%) followed by the placebo group (20.0%) and the no-rinse control group (11.1%). Overall, 10 subjects reported at least 1 TEAE considered related to study drug, and 5 subjects reported at least one TEAE related to study procedures.\nThe primary outcome of this study was safety, and therefore, all efficacy analyses were considered secondary outcomes. The key secondary efficacy outcomes in this study were Modified Gingival Index (MGI) and BOP."}, "[1]": {"experiment": "stability of the methyl ester in the oral rinse formulation over the course of the study", "format": "physicochemical", "conditions": "neutral pH (7 or less)", "description": "as §1\nWithout wishing to be bound by theory, it is believed that […] the pH of the oral rinse formulation increases the stability of the methyl ester forms of these benzo-lipoxin analogs and mimetics, therefore allowing for more efficient delivery of the active compounds (e.g., Compound (Vb), etc.) in these formulations."}, "[2]": {"system": "eicosanoid oxido-reductase", "conditions": "in comparison with native lipoxin A4; cited from earlier work"}, "[3]": {"system": "polymorphonuclear neutrophil infiltration", "conditions": "murine peritonitis model, compared with the vehicle control; cited from earlier work"}, "[4]": {"conditions": "1.0 μM oral rinse once daily for 28 days"}, "[5]": {"conditions": "oral TEAE possibly related to study drug"}}, "data": [{"smiles": "CCCCC[C@@H](O)/C=C/c1ccccc1/C=C/[C@@H](O)[C@@H](O)CCCC(=O)OC", "note": "[Compound (Vb), methyl (5S,6R,E)-5,6-dihydroxy-8-(2-((R,E)-3-hydroxyoct-1-en-1-yl)phenyl)oct-7-enoate]", "values": [{"measurement": "overall safety and tolerability", "setting": "subjects with gingivitis; [4]", "result": "generally safe and well tolerated"}, {"measurement": "percentage of subjects reporting at least 1 TEAE", "setting": "subjects with gingivitis; [4]", "result": 38.0, "unit": "%"}, {"measurement": "subjects reporting oral TEAEs considered possibly related to study drug", "setting": "subjects with gingivitis; [4]", "result": "Four"}, {"measurement": "subjects with study drug-related TEAEs", "setting": "subjects with gingivitis; [4]", "result": 6, "unit": "subjects"}, {"measurement": "change in mean MGI", "setting": "subjects with gingivitis; Day 14 and 28, relative to placebo", "result": "clinically important decrease"}, {"measurement": "BOP", "setting": "subjects with gingivitis; Day 28, versus placebo", "result": "did not result in meaningful differences"}, {"measurement": "extent of clinical gingivitis", "setting": "subjects with gingivitis; compared with the placebo group", "result": "reduced the extent of clinical gingivitis"}, {"measurement": "TEAEs leading to study drug discontinuation", "setting": "subjects with gingivitis; human, in vivo", "result": "No TEAEs led to study drug discontinuation"}, {"measurement": "severity of oral TEAEs", "setting": "subjects with gingivitis; human, in vivo, po", "result": "mild in severity"}, {"measurement": "subjects reporting an oral disorder", "setting": "subjects with gingivitis; [5]", "result": 1, "unit": "subject"}, {"measurement": "subjects reporting dry mouth", "setting": "subjects with gingivitis; [5]", "result": 3, "unit": "subjects"}, {"measurement": "pocket depth reduction", "setting": "subjects with gingivitis; sites with pockets >6 mm, ± SD", "result": "−1.23±0.406", "unit": "mm"}, {"measurement": "stability of the methyl ester in the formulation", "setting": "[1]", "result": "increase in the free acid form"}, {"measurement": "conversion to inactive forms", "setting": "[2]", "result": "not readily converted to inactive forms"}, {"measurement": "inhibition of polymorphonuclear neutrophil infiltration", "setting": "[3]", "result": "approximately 32%"}]}]}
